From patent US8258311B2, “Human protein tyrosine phosphatase inhibitors and methods of use” (Aerpio Therapeutics Inc., priority 2006, dated 2012) come the findings set out here.

The target of one assay is HPTPβ (Homo sapiens, UniProt P23467). In words: HPTPβ inhibition (IC50). It counts as biochemical.
The target of the next assay is T1, PTP1B (Homo sapiens, UniProt P18031).
T1 sequence (P18031 1-435): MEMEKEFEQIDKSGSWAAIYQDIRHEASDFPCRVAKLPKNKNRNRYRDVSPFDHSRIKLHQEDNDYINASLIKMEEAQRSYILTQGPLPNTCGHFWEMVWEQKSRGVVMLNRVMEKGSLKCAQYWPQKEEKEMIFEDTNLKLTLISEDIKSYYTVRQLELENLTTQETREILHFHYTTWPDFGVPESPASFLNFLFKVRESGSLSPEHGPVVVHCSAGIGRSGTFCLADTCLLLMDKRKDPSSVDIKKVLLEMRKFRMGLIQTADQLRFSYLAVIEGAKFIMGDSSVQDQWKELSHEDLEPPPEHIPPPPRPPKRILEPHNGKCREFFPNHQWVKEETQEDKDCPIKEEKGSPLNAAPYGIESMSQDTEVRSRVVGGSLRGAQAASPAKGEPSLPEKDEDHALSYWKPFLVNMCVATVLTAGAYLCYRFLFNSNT
Put plainly: PTP1B inhibition (IC50). The format is biochemical.

By IC50 is commonly meant the point on the concentration scale where inhibition reaches its midpoint. A higher IC50 goes with weaker potency.

HPTPβ, sequence (P23467 23-1997): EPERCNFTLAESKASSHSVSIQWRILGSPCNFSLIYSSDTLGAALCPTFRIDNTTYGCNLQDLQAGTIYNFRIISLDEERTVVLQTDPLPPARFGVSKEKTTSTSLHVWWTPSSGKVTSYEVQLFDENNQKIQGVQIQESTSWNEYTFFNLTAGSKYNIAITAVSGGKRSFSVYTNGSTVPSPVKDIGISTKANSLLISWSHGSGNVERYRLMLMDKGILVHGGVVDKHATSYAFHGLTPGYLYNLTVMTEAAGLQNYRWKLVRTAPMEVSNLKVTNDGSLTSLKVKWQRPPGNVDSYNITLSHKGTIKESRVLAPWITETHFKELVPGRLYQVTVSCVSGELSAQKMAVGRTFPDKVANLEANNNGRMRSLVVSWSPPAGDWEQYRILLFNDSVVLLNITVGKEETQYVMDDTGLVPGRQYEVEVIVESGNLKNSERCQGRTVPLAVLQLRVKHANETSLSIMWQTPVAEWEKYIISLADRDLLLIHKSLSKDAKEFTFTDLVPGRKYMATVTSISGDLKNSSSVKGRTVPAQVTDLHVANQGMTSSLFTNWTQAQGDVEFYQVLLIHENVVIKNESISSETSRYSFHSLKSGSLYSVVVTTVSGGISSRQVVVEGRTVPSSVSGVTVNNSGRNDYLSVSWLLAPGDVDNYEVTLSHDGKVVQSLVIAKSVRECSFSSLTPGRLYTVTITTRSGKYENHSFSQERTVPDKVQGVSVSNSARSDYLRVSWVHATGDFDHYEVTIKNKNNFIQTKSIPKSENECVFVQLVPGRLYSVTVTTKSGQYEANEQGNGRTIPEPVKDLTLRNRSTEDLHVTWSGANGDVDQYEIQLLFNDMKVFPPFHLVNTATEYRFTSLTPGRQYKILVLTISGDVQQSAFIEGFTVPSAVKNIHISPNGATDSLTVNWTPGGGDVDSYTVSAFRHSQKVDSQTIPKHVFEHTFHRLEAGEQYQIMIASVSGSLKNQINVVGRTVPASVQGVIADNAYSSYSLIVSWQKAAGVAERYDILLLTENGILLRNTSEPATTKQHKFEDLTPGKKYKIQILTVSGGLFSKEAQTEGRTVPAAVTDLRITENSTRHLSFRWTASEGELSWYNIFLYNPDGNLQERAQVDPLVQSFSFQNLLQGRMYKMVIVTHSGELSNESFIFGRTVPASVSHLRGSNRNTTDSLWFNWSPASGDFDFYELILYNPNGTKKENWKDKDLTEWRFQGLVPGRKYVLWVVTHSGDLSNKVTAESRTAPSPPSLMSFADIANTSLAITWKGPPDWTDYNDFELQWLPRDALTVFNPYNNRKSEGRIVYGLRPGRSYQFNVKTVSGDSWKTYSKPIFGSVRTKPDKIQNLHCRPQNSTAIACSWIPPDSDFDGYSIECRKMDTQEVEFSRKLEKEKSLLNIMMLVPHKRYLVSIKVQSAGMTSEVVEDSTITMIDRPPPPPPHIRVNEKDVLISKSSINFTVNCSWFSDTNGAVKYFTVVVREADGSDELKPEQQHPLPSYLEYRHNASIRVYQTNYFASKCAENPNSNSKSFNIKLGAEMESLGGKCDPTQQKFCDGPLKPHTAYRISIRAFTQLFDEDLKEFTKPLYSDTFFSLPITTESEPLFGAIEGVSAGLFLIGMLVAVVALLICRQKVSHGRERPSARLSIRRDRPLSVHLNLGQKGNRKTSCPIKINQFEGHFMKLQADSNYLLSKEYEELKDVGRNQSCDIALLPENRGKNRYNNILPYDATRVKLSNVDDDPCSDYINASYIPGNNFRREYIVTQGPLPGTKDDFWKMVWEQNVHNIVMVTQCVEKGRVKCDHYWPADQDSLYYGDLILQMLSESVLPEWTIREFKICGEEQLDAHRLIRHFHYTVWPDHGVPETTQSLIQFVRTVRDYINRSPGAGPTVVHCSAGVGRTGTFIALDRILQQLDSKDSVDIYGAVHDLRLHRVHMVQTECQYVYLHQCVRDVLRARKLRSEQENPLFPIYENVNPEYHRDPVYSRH

As for `CCc1nc([C@H](Cc2ccc(NS(=O)(=O)O)cc2)NC(=O)[C@H](Cc2ccccc2)NC(=O)OC)sc1C` [4-{(S)-2-(4-Ethyl-5-methylthiazol-2-yl)-2-[(S)-2-(methoxy-carbonylamino)-3-phenyl-propanamido]ethyl}phenylsulfamic acid], the half-maximal inhibitory concentration (IC50) against HPTPβ is 0.1 nM; against PTP1B, 1120 nM.

As to `Cc1sc([C@H](Cc2ccc(NS(=O)(=O)O)cc2)NC(=O)C(C)(C)C)nc1-c1ccccc1` [(S)-4-(2-(5-Methyl-4-phenylthiazol-2-yl)-2-pivalamidoethyl)phenylsulfamic acid], the IC50 against HPTPβ is 98 nM; on PTP1B, 50500 nM.

`COC(=O)N[C@@H](Cc1ccccc1)C(=O)N[C@@H](Cc1ccc(NS(=O)(=O)O)cc1)c1csc(-c2cnccn2)n1` [4-{(S)-2-[(S)-2-(Methoxycarbonylamino)-3-phenylpropanamido]-2-[2-(pyrazin-2-yl)thiazol-4-yl]ethyl}phenylsulfamic acid]: the IC50 worked out at 3 nM on HPTPβ and 295 nM at PTP1B.

`CCc1nc([C@H](Cc2ccc(NS(=O)(=O)O)cc2)NC(=O)[C@H](Cc2ccccc2)NC(=O)OC)cs1` [4-{(S)-2-[(S)-2-(Methoxycarbonylamino)-3-phenylpropanamido]-2-(2-ethylthiazol-4-yl)ethyl}phenylsulfamic acid]: the IC50 against HPTPβ amounted to 0.1 nM; against PTP1B, 1010 nM.

For the molecule `CCCc1csc([C@H](Cc2ccc(NS(=O)(=O)O)cc2)NC(=O)[C@H](Cc2ccccc2)NC(=O)OC)n1` [4-{(S)-2-[(S)-2-(Methoxycarbonylamino)-3-phenylpropanamido]-2-(4-propylthiazol-2-yl)ethyl}phenylsulfamic acid], the half-inhibitory concentration (IC50) at HPTPβ amounted to 0.1 nM; at PTP1B it was 1030 nM.

For the molecule `COC(=O)N[C@@H](Cc1ccccc1)C(=O)N[C@@H](Cc1ccc(NS(=O)(=O)O)cc1)c1nc2c(s1)CCCC2` [4-{(S)-2-[(S)-2-(Methoxycarbonylamino)-3-phenylpropanamido]-2-(4,5,6,7-tetrahydrobenzo[d]thiazol-2-yl)ethyl}phenylsulfamic acid], the 50% inhibitory concentration (IC50) on HPTPβ is 0.4 nM; against PTP1B, 89 nM.

Turning to `COC(=O)N[C@@H](Cc1ccccc1)C(=O)N[C@@H](Cc1ccc(NS(=O)(=O)O)cc1)c1nccs1` [4-{(S)-2-[(S)-2-(Methoxycarbonylamino)-3-phenylpropanamido]-2-(thiazol-2-yl)ethyl}phenylsulfamic acid], the IC50 on HPTPβ turned out to be 6 nM; against PTP1B, 1020 nM.

Turning to `COC(=O)N[C@@H](Cc1ccccc1)C(=O)N[C@@H](Cc1ccc(NS(=O)(=O)O)cc1)c1csc(CS(=O)(=O)C(C)(C)C)n1` [4-{(S)-2-[2-(tert-Butylsulfonylmethyl)thiazol-4-yl]-2-[(S)-2-(methoxycarbonylamino)-3-phenylpropanamido]ethyl}phenylsulfamic acid], the IC50 against HPTPβ is 2 nM; at PTP1B, 1210 nM.

Consider `CCOC(=O)c1csc([C@H](Cc2ccc(NS(=O)(=O)O)cc2)NC(=O)C(C)(C)C)n1` [(S)-4-{[2-(4-Ethoxycarbonyl)thiazol-2-yl]-2-pivalamidoethyl}phenylsulfamic acid], for which the results for the half-maximal inhibitory concentration (IC50) against HPTPβ and against PTP1B were 584 nM and 44900 nM, respectively.

`CC(=O)N[C@@H](Cc1ccccc1)C(=O)N[C@@H](Cc1ccc(NS(=O)(=O)O)cc1)c1nc(-c2ccsc2)cs1` [4-{(S)-2-((S)-2-Acetamido-3-phenylpropanamido)-2-[4-(thiophen-3-yl)thiazol-2-yl]ethyl}phenylsulfamic acid]: the IC50 was determined as 0.24 nM at HPTPβ and 1160 nM on PTP1B.

Take `CC(C)(C)OC(=O)N[C@@H](Cc1ccc(NS(=O)(=O)O)cc1)c1nc(-c2ccsc2)cs1` [4-((S)-2-(tert-Butoxycarbonylamino)-2-(4-(thiophen-3-yl)thiazol-2-yl)ethyl)phenyl sulfamic acid]: the 50% inhibitory concentration (IC50) against HPTPβ turned out to be 45 nM; on PTP1B it was 14600 nM.

With `COC(=O)N[C@@H](Cc1ccccc1)C(=O)N[C@@H](Cc1ccc(NS(=O)(=O)O)cc1)c1nc(C)c(C)s1` [4-{(S)-2-(4,5-Dimethylthiazol-2-yl)-2-[(S)-2-(methoxycarbonylamino)-3-phenyl-propanamido]ethyl}phenylsulfamic acid], the IC50 at HPTPβ was found to be 1 nM; against PTP1B, 310 nM.

Consider `CCc1csc([C@H](Cc2ccc(NS(=O)(=O)O)cc2)NC(=O)[C@H](Cc2ccccc2)NC(C)=O)n1` [4-[(S)-2-((S)-2-Acetamido-3-phenylpropanamido)-2-(4-ethylthiazol-2-yl)ethyl]phenylsulfamic acid], for which the IC50 on HPTPβ was 1 nM; against PTP1B, 1970 nM.

In the case of `COCc1csc([C@H](Cc2ccc(NS(=O)(=O)O)cc2)NC(=O)[C@H](Cc2ccccc2)NC(=O)OC)n1` [4-{(S)-2-[(S)-2-(Methoxycarbonylamino)-3-phenylpropanamido]-2-[4-(methoxymethyl)thiazol-2-yl]ethyl}phenylsulfamic acid], the IC50 on HPTPβ worked out at 1 nM; against PTP1B it was 640 nM.

`Cc1nc([C@H](Cc2ccc(NS(=O)(=O)O)cc2)NC(=O)OC(C)(C)C)cs1`: the results for the 50% inhibitory concentration (IC50) against HPTPβ and against PTP1B were 33 nM and 18900 nM, respectively.

`CC(C)(C)C(=O)N[C@@H](Cc1ccc(NS(=O)(=O)O)cc1)c1nc(-c2ccc3c(c2)OCCO3)cs1` [4-((S)-2-(4-(2,3-Dihydrobenzo[b][1,4]dioxin-6-yl)thiazol-2-yl)-2-pivalamidoethyl)phenylsulfamic acid]: the IC50 against HPTPβ was 138 nM; against PTP1B it was 38300 nM.

`COC(=O)N[C@@H](Cc1ccccc1)C(=O)N[C@@H](Cc1ccc(NS(=O)(=O)O)cc1)c1nc(C(C)(C)C)cs1` [4-{(S)-2-(4-tert-Butylthiazol-2-yl)-2-[(S)-2-(methoxycarbonylamino)-3-phenylpropanamido]ethyl}phenylsulfamic acid]: the results for the half-inhibitory concentration (IC50) at HPTPβ and against PTP1B were 0.2 nM and 708 nM, respectively.

As for `CCOC(=O)c1csc([C@H](Cc2ccc(NS(=O)(=O)O)cc2)NC(=O)[C@H](Cc2ccccc2)NC(=O)OC)n1` [4-{(S)-2-(4-(Ethoxycarbonyl)thiazol-2-yl)-2-[(S)-2-(methoxy-carbonylamino)-3-phenylpropanamido]ethyl}phenylsulfamic acid], the half-maximal inhibitory concentration (IC50) at HPTPβ is 0.2 nM; against PTP1B, 70 nM.

Turning to `COC(=O)N[C@@H](Cc1ccccc1)C(=O)N[C@@H](Cc1ccc(NS(=O)(=O)O)cc1)c1nc(CC(F)(F)F)cs1` [4-{(S)-2-[(S)-2-(Methoxycarbonylamino)-3-phenylpropanamido]-2-[4-(2,2,2-trifluoroethyl)thiazol-2-yl]ethyl}phenylsulfamic acid], the IC50 on HPTPβ is 0.3 nM; against PTP1B, 1630 nM.

With `CC(C)(C)OC(=O)N[C@@H](Cc1ccc(NS(=O)(=O)O)cc1)c1nc(-c2cccc(C(F)(F)F)c2)cs1` [4-((S)-2-(tert-Butoxycarbonylamino)-2-(4-(3-(trifluoromethyl)phenyl)thiazol-2-yl)ethyl)-phenyl sulfamic acid], the IC50 at HPTPβ worked out at 253 nM; against PTP1B it was 11800 nM.

As for `CCc1csc([C@H](Cc2ccc(NS(=O)(=O)O)cc2)NC(=O)[C@H](Cc2ccccc2)NC(=O)OC)n1` [4-{(S)-2-(4-Ethylthiazol-2-yl)-2-[(S)-2-(methoxycarbonylamino)-3-phenylpropanamido]ethyl}phenylsulfamic acid], the concentration for half-maximal inhibition (IC50) against HPTPβ is 0.162 nM; at PTP1B it was 490 nM.

Take `COC(=O)N[C@@H](Cc1ccccc1)C(=O)N[C@@H](Cc1ccc(NS(=O)(=O)O)cc1)c1nc(-c2ccsc2)cs1` [4-{(S)-2-[(S)-2-(Methoxycarbonylamino)-3-phenylpropanamido]-2-[4-(thiophen-3-yl)thiazol-2-yl]ethyl}phenylsulfamic acid]: the values for the half-maximal inhibitory concentration (IC50) on HPTPβ and at PTP1B were 0.09 nM and 440 nM, respectively.

With `CC(C)(C)C(=O)N[C@@H](Cc1ccc(NS(=O)(=O)O)cc1)c1nc(Cc2ccccc2)cs1` [(S)-4-(2-(4-Benzylthiazol-2-yl)-2-pivalamidoethyl)phenylsulfamic acid], the results for the IC50 on HPTPβ and against PTP1B were 113 nM and 38200 nM, respectively.
